From patent publication US20040014676A1, “SRC kinase inhibitors useful for treating osteoporosis” (priority 2001, published 2004) come the findings set out here.

The target of this assay is T1, Src kinase (Homo sapiens, UniProt P12931).
T1 construct: purchased Upstate Bioteolnology (sic; Upstate Biotechnology); later HMR stock 27597-019E1 #14-117
Briefly: Phosphorylation assay of Src kinase inhibitors (radiometric, 96 well filter plate). The settings on record: duplicates, tested in the range of 400-0.098 µM; 10 µM peptide substrate (FIYGAFKKKKNH2), 5 µM unlabeled ATP, room temperature 30 min; read-out: IC50. The class given is biochemical. The protocol:
The present invention provides novel compounds of Formulae I through XVIII discussed above. The following compounds which fall within Formulae I through XVIII are characterized by structure, IUPAC name and activity using phosphorylation assay for protein tyrosine Src kinase.
Phosphorylation Assay of Src Kinase Inhibitors
The activity of Src kinase was measured in a 96 well plate phosphorylation assay where the transfer of gamma phosphate from ATP to peptide substrate was measured radiometrically. […] Ki values were determined experimentally for some of the inhibitors. The phosphocellulose filter plates (Millipore catalog #MAPH NOB) were prewet prior to the phosphorylation assay by addition of 100 1 per well of 30 mM MES buffer+0.4 mg/ml BSA. After a 20-minute incubation, the buffer was removed completely via a Millipore vacuum manifold. The phosphorylation assay was then set up in the filter plates in a total volume per well of 60 1. The 60 1 consisted of compound (see concentration ranges above), a 1:100 dilution of Src kinase (originally Upstate Bioteolnology, #14-117; later HMR stock 27597-019E1) or assay buffer alone (for no enzyme control wells), 10 M peptide substrate (FIYGAFKKKKNH2), 5 M unlabeled ATP and a 1:500 dilution of P-ATP (New England Nuclear, catalog #NEG-602H, 2000 Ci/mmol). The reaction was mixed and incubated at room temperature for 30 min. The kinase reactions were stopped by addition of 150 mM H3PO4 and incubated for 10 minutes. The filter plate wells were filtered and washed seven times with 200 1 per well of 150 mM H3PO4. Finally, the filter plate was placed into a Packard plate adapter (Packard catalog #600517B), 35 1 of Microscint-20 (Packard catalog #6013621) was added to each well, the plate was sealed (TopSeal A sealers; Packard catalog #6005185) and counted on a Packard TopCount.
As for “3-[4-[[2(S)-AMINO-3-(4-HYDROXY- PHENYL)-1-OXOPROPYL]AMINO]- ETHOXY]-2-[N-ACETAMIDO]- NAPHTHALENECARBOXAMIDE [Example 23]”, the IC50 was 3.4 µM.
With “3-[[4-[[1-OXO-2(S)-AMINO-3-(4- HYDROXYPHENYL)]PROPYL]AMINO]BUTOXY]-7-METHOXY- NAPHTHALENE-2-[N-[[(3-HYDROXY- PROPYLAMINO)-CARBONYL]- METHYL]]CARBOXAMIDE [Example 118]”, the IC50 worked out at 47 µM.
“3-[[[2(S)-AMINO-3-(4-HYDROXY- PHENYL)-1-OXO]PROPYL]AMINO]- BUTOXY]NAPHTHALENE-2-[N- [(AMIDO)[2-(INDOL-3-YL)METHYL]- METHYL]CARBOXAMIDE [Example 29]”: the IC50 is 60 µM.
Then “3-[[[4-[[[1-OXO-2(S)-AMINO-3- HYDROXYPHENYL)]PROPYL]AMINO]- BUTYL]CARBONYL]AMINO]- NAPHTHALENE-2-ACETAMIDO)- CARBOXAMIDE [Example 91]”, with 209 µM; and `Cc1nc(-c2ccc(CC(N)C(=O)NCCCCOc3cc4ccccc4cc3C(=O)NCC(N)=O)cc2)no1` (stereo in doubt) [Compound 135, (2S)-2-amino-N-(4-{3-[N-(carbamoylmethyl)carbamoyl](2-naphtyloxy)}butyl)-3-[4-(5-methyl(1,2,4-oxadizol-3-yl))phenyl]propanamide], with 29 µM; and `NC(=O)CNC(=O)c1cc(-c2ccccc2)ccc1OCCCCNC(=O)C(N)Cc1ccc(O)cc1` (stereo in doubt) [Compound 144, (2S)-2-amino-N-(4-{2-[N-(carbamoylmethyl)carbamoyl]-4-phenylphenoxy}butyl)-3-(4-hydroxyphenyl)propanamide], with 30 µM.
Take `NC(=O)CNC(=O)c1cc2ccccc2cc1OCCCCN1CCNC(Cc2ccccc2)C1=O` (stereo in doubt) [Example 28, 3-[4-[(2-OXO-3(S)-BENZYL)-PIPERAZIN- 1-YL]BUTOXY]-NAPHTHALENE-2-(N- ACETAMIDO)CARBOXAMIDE]: the half-maximal inhibitory concentration (IC50) was found to be 27 µM.
On to `NC(=O)CNC(=O)c1cc2ccccc2cc1OCCCCN1CCNC(Cc2ccccc2)C1=O` (stereo in doubt) [Example 30, 3-[4-[(2-OXO-3-(R)-BENZYL)- PIPERAZIN-1-YL]BUTOXY]- NAPHTHALENE-2-(N- ACETAMIDO)CARBOXAMIDE], for which the half-inhibitory concentration (IC50) is 8.8 µM.
Consider `C[C@@H](NC(=O)c1cc2ccccc2cc1OCCCCNC(=O)[C@H](N)Cc1ccc(O)cc1)C(N)=O` (stereo in doubt) [Example 122, 2-[[4-[[1-OXO-2-AMINO-3-(4-HYDROXY- PHENYL)]PROPYL]AMINO] BUTOXY]- NAPHTHALENE-3-[N-[1(S)-METHYL-2- OXO-2-AMINO)ETHYL]ACETAMIDO]- CARBOXAMIDE], for which the IC50 was found to be 12 µM.
For the compound `NC(=O)CNC(=O)c1cc2ccccc2cc1NCCCCNC(=O)[C@H](N)Cc1ccc(O)cc1` (stereo in doubt) [Example 123], the IC50 came out at 25 µM.
For `CNC(=O)C(Cc1ccc(-c2noc(C)n2)cc1)C(=O)NCCCCOc1cc2ccccc2cc1C(=O)NCC(N)=O` (stereo not shown) [Compound 134, N-(4-{3-[N-(carbamoylmethyl)carbamoyl](2-naphthyloxy)}butyl)-N′-methyl-2-{[4-(5-methyl(1,2,4-oxadiazol-3-yl))phenyl]methyl}propane-1,3-diamide], the IC50 is 76 µM.
Then `NC(=O)CNC(=O)c1c(Cl)c(Cl)cc(Cl)c1OCCCCNC(=O)[C@@H](N)Cc1ccc(O)cc1` [Compound 136, (2S)-2-amino-N-(4-{2-[N-(carbamoylmethyl)carbamoyl]-3,4,6-trichlorophenoxy)butyl)-3-(4-hydroxyphenyl)propanamide], with 200 µM.
`NC(=O)CC(=O)Nc1cc2ccccc2cc1OCCCCNC(=O)[C@@H](N)Cc1ccc(O)cc1` [Compound 151, (2S)-2-amino-N-{4-[3-(2-carbamoylacetylamino)(2-naphthyloxy)]butyl}-3-(4-hydroxyphenyl)propanamide]: the half-inhibitory concentration (IC50) came to 5 µM.

For orientation: IC50 means the concentration that inhibits the measured activity by half.
